{
  "source": "PubChem BioAssay (NCI)",
  "experiment_in_all_cases": "NCI anticancer screen, dose series, 384-well format",
  "key": {"MALME-3M melanoma": {"system": "MALME-3M melanoma"}, "UO-31 renal": {"system": "UO-31 renal"}, "OVCAR-4 ovarian": {"system": "OVCAR-4 ovarian"}, "OVCAR-3 ovarian": {"system": "OVCAR-3 ovarian"}, "SK-MEL-28 melanoma": {"system": "SK-MEL-28 melanoma"}, "NCI-H23 lung": {"system": "NCI-H23 lung"}, "OVCAR-5 ovarian": {"system": "OVCAR-5 ovarian"}, "SN12C renal": {"system": "SN12C renal"}, "SNB-75 CNS": {"system": "SNB-75 CNS"}, "LOX IMVI melanoma": {"system": "LOX IMVI melanoma"}, "BT-549 breast": {"system": "BT-549 breast"}, "HCT-116 colon": {"system": "HCT-116 colon"}, "ACHN renal": {"system": "ACHN renal"}, "IGROV1 ovarian": {"system": "IGROV1 ovarian"}, "CCRF-CEM leukemia": {"system": "CCRF-CEM leukemia"}, "HOP-92 NSCLC": {"system": "HOP-92 NSCLC"}, "NCI-H322M lung": {"system": "NCI-H322M lung"}, "NCI-H226 lung": {"system": "NCI-H226 lung"}, "786-0 renal": {"system": "786-0 renal"}, "HOP-62 NSCLC": {"system": "HOP-62 NSCLC"}, "SK-OV-3 ovarian": {"system": "SK-OV-3 ovarian"}, "MDA-MB-435 melanoma": {"system": "MDA-MB-435 melanoma"}, "A498 renal": {"system": "A498 renal"}, "SK-MEL-2 melanoma": {"system": "SK-MEL-2 melanoma"}, "HL-60(TB) leukemia": {"system": "HL-60(TB) leukemia"}, "CAKI-1 renal": {"system": "CAKI-1 renal"}, "TK-10 renal": {"system": "TK-10 renal"}, "SR leukemia": {"system": "SR leukemia"}, "K-562 leukemia": {"system": "K-562 leukemia"}},
  "note": "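GI50 marks 50% less growth. TGI denotes the concentration required for complete inhibition of growth.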",
  "data": [
    {"molecule": "COc1cccc(Nc2ncnn3ccc(CN4CC[C@@H](N)[C@H](O)C4)c23)c1", "values": [
      {"measurement": "GI50", "setting": "MALME-3M melanoma", "value": 12.8, "unit": "µM"},
      {"measurement": "TGI", "setting": "MALME-3M melanoma", "value": 25.5, "unit": "µM"},
      {"measurement": "GI50", "setting": "UO-31 renal", "value": 1.1, "unit": "µM"},
      {"measurement": "TGI", "setting": "UO-31 renal", "value": 7.47, "unit": "µM"},
      {"measurement": "GI50", "setting": "OVCAR-4 ovarian", "value": 24.8, "unit": "µM"},
      {"measurement": "TGI", "setting": "OVCAR-4 ovarian", "value": "> 100", "unit": "µM"},
      {"measurement": "GI50", "setting": "OVCAR-3 ovarian", "value": 0.0815, "unit": "µM"},
      {"measurement": "TGI", "setting": "OVCAR-3 ovarian", "value": 21.8, "unit": "µM"},
      {"measurement": "GI50", "setting": "SK-MEL-28 melanoma", "value": 18.3, "unit": "µM"},
      {"measurement": "TGI", "setting": "SK-MEL-28 melanoma", "value": 32.4, "unit": "µM"},
      {"measurement": "GI50", "setting": "NCI-H23 lung", "value": 2.42, "unit": "µM"},
      {"measurement": "TGI", "setting": "NCI-H23 lung", "value": 16.8, "unit": "µM"},
      {"measurement": "GI50", "setting": "OVCAR-5 ovarian", "value": 0.686, "unit": "µM"},
      {"measurement": "TGI", "setting": "OVCAR-5 ovarian", "value": 43.9, "unit": "µM"},
      {"measurement": "GI50", "setting": "SN12C renal", "value": 0.18, "unit": "µM"},
      {"measurement": "TGI", "setting": "SN12C renal", "value": 12, "unit": "µM"},
      {"measurement": "GI50", "setting": "SNB-75 CNS", "value": 0.247, "unit": "µM"},
      {"measurement": "TGI", "setting": "SNB-75 CNS", "value": 1.37, "unit": "µM"},
      {"measurement": "GI50", "setting": "LOX IMVI melanoma", "value": 7.68, "unit": "µM"},
      {"measurement": "TGI", "setting": "LOX IMVI melanoma", "value": 20.4, "unit": "µM"},
      {"measurement": "GI50", "setting": "BT-549 breast", "value": 7.04, "unit": "µM"},
      {"measurement": "TGI", "setting": "BT-549 breast", "value": 20.5, "unit": "µM"},
      {"measurement": "GI50", "setting": "HCT-116 colon", "value": 12.3, "unit": "µM"},
      {"measurement": "TGI", "setting": "HCT-116 colon", "value": 25.6, "unit": "µM"},
      {"measurement": "GI50", "setting": "ACHN renal", "value": 0.0368, "unit": "µM"},
      {"measurement": "TGI", "setting": "ACHN renal", "value": 5.84, "unit": "µM"},
      {"measurement": "TGI", "setting": "IGROV1 ovarian", "value": 0.512, "unit": "µM"},
      {"measurement": "GI50", "setting": "CCRF-CEM leukemia", "value": 14.7, "unit": "µM"},
      {"measurement": "TGI", "setting": "CCRF-CEM leukemia", "value": 28, "unit": "µM"},
      {"measurement": "GI50", "setting": "HOP-92 NSCLC", "value": 6.62, "unit": "µM"},
      {"measurement": "TGI", "setting": "HOP-92 NSCLC", "value": 28.9, "unit": "µM"},
      {"measurement": "GI50", "setting": "NCI-H322M lung", "value": 0.0313, "unit": "µM"},
      {"measurement": "TGI", "setting": "NCI-H322M lung", "value": 0.941, "unit": "µM"},
      {"measurement": "GI50", "setting": "NCI-H226 lung", "value": 1.97, "unit": "µM"},
      {"measurement": "TGI", "setting": "NCI-H226 lung", "value": 12.4, "unit": "µM"},
      {"measurement": "GI50", "setting": "786-0 renal", "value": 0.989, "unit": "µM"},
      {"measurement": "TGI", "setting": "786-0 renal", "value": 14.4, "unit": "µM"},
      {"measurement": "GI50", "setting": "HOP-62 NSCLC", "value": 2.7, "unit": "µM"},
      {"measurement": "TGI", "setting": "HOP-62 NSCLC", "value": 30.2, "unit": "µM"},
      {"measurement": "GI50", "setting": "SK-OV-3 ovarian", "value": 0.0333, "unit": "µM"},
      {"measurement": "TGI", "setting": "SK-OV-3 ovarian", "value": 0.607, "unit": "µM"},
      {"measurement": "GI50", "setting": "MDA-MB-435 melanoma", "value": 18.2, "unit": "µM"},
      {"measurement": "TGI", "setting": "MDA-MB-435 melanoma", "value": 36.6, "unit": "µM"},
      {"measurement": "GI50", "setting": "A498 renal", "value": 1.3, "unit": "µM"},
      {"measurement": "TGI", "setting": "A498 renal", "value": 9, "unit": "µM"},
      {"measurement": "GI50", "setting": "SK-MEL-2 melanoma", "value": 26.7, "unit": "µM"},
      {"measurement": "TGI", "setting": "SK-MEL-2 melanoma", "value": 41.5, "unit": "µM"},
      {"measurement": "GI50", "setting": "HL-60(TB) leukemia", "value": 17.6, "unit": "µM"},
      {"measurement": "TGI", "setting": "HL-60(TB) leukemia", "value": 31.5, "unit": "µM"},
      {"measurement": "GI50", "setting": "CAKI-1 renal", "value": 0.295, "unit": "µM"},
      {"measurement": "TGI", "setting": "CAKI-1 renal", "value": 7.12, "unit": "µM"},
      {"measurement": "GI50", "setting": "TK-10 renal", "value": 0.0524, "unit": "µM"},
      {"measurement": "TGI", "setting": "TK-10 renal", "value": 1.27, "unit": "µM"},
      {"measurement": "GI50", "setting": "SR leukemia", "value": 12.5, "unit": "µM"},
      {"measurement": "TGI", "setting": "SR leukemia", "value": 25.2, "unit": "µM"},
      {"measurement": "GI50", "setting": "K-562 leukemia", "value": 0.0847, "unit": "µM"},
      {"measurement": "TGI", "setting": "K-562 leukemia", "value": 0.228, "unit": "µM"}
    ]}
  ]
}
